As a reminder, the inhibition is how much of the control response was suppressed. What is called IC50 is the concentration at which inhibition is half-maximal. A low value points to greater potency.

Chain of Serotonin 5-HT7 Receptors (P34969 whole entry): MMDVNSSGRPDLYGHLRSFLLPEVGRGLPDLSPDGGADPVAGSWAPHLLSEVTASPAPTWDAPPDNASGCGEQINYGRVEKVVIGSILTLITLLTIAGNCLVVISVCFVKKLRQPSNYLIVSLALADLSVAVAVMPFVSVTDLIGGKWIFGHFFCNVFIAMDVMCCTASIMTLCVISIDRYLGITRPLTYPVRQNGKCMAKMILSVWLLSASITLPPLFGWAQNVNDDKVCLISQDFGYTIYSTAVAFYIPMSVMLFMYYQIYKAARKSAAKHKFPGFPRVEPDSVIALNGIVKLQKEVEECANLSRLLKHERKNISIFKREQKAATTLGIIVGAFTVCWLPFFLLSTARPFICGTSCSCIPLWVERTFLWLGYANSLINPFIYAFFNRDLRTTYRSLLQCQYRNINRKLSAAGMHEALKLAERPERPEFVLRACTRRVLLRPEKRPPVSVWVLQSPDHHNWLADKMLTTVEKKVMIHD

The first assay has as its target Serotonin 5-HT7 Receptors (Homo sapiens (Human), UniProt P34969). Briefly: Radiolabel Binding Studies for Serotonin 5-HT7 Receptors, Method 2 ([3H]-5HT competition; Ki and percent inhibition at 10 μM). Conditions: @ 10 μM single concentration; read-out: 5-HT7 percent inhibition of radioligand binding. Here is the method:
Radiolabel Binding Studies for Serotonin 5-HT7 Receptors, Method 2:
A solution of the compound of the disclosure to be tested is prepared as a 1-mg/ml stock in Assay Buffer or DMSO according to its solubility. A similar stock of the reference compound chlorpromazine is also prepared as a positive control. Eleven dilutions (5×assay concentration) of the compound of the disclosure and chlorpromazine are prepared in the Assay Buffer by serial dilution to yield final corresponding assay concentrations ranging from 10 pM to 10 μM.
A stock concentration of 5 nM [^3H]-5-Hydroxytryptamine ([^3H]-5HT) is prepared in 50 mM Tris-HCl, 10 mM MgCl2, 1 mM EDTA, pH 7.4 (Assay Buffer). Aliquots (50 μl) of radioligand are dispensed into the wells of a 96-well plate containing […] of Assay Buffer. Duplicate 50-μl aliquots of the compound of the disclosure test and chlorpromazine positive control reference compound serial dilutions are added.
Membrane fractions of cells expressing recombinant 5HT7 receptors (50 μL) are dispensed into each well. The membranes are prepared from stably transfected cell lines expressing 5HT7 receptors cultured on 10-cm plates by harvesting PBS-rinsed monolayers, resuspending and lysing in chilled, hypotonic 50 mM Tris-HCl, pH 7.4, centrifuging at 20,000×g, decanting the supernatant and storing at −80° C.; the membrane preparations are resuspended in 3 ml of chilled Assay Buffer and homogenized by several passages through a 26 gauge needle before using in the assay.
The 250-μl reactions are incubated at room temperature for 1.5 hours, then harvested by rapid filtration onto 0.3% polyethyleneimine-treated, 96-well filter mats using a 96-well Filtermate harvester. Four rapid 500-μl washes are performed with chilled Assay Buffer to reduce non-specific binding. The filter mats are dried, then scintillant is added to the filters and the radioactivity retained on the filters is counted in a Microbeta scintillation counter.
Raw data (dpm) representing total radioligand binding (i.e., specific+non-specific binding) are plotted as a function of the logarithm of the molar concentration of the competitor (i.e., test or reference compound). Non-linear regression of the normalized (i.e., percent radioligand binding compared to that observed in the absence of test or reference compound) raw data is performed in Prism 4.0 (GraphPad Software) using the built-in three parameter logistic model describing ligand competition binding to radioligand-labeled sites: y=bottom+[(top−bottom)/(1+10x−log IC50)] where bottom equals the residual radioligand binding measured in the presence of 10 μM reference compound (i.e., non-specific binding) and top equals the total radioligand binding observed in the absence of competitor. The log IC50 (i.e., the log of the ligand concentration that reduces radioligand binding by 50%) is thus estimated from the data and used to obtain the Ki by applying the Cheng-Prusoff approximation: Ki=IC50/(1+[ligand]/KD) where [ligand] equals the assay radioligand concentration and KD equals the affinity constant of the radioligand for the target receptor.
Compounds of the disclosure are also screened at a single concentration of 10 μM using the same method described for the Radiolabel Binding Studies for Serotonin 5HT7 receptors to determine the percent inhibition of [^3H]-5HT binding.
Turning to `CCC1(CC)CC(CCN2CC3CN(c4ccc(C)cc4)CC3C2)OC1=O` (stereo not shown) [Entry 6], the inhibition at 10 µM amounted to 44.5%. Turning to `CCC1(CC)CC(CCN2CC3CN(c4ccc(C#N)cc4)CC3C2)OC1=O` (stereo not shown) [Entry 9], the inhibition at 10 µM is 26.3%. On the same count and under the same terms, next, `CCC1(CC)CC(CCN2CC3CN(c4cccc(O)c4)CC3C2)OC1=O` (stereo not shown) [Entry 14]: 39.8%. On the same count and under the same terms, next, `CCC1(CC)CC(CCN2CC3CN(c4cccc(C#N)c4)CC3C2)OC1=O` (stereo not shown) [Entry 8]: 48.9%; `CCC1(CC)CC(CCN2CC3CN(c4ccc(OC)cc4)CC3C2)OC1=O` (stereo not shown) [Entry 12]: 24.5%.

The assay is the same for the next values; noted with them: radiolabel binding, 5HT7 receptors.
On to `CCC1(CC)CC(CCN2CC3CN(c4ccccc4C#N)CC3C2)OC1=O` (stereo not shown) [Entry 7], for which the 50% inhibitory concentration (IC50) is 8.9 nM.

`CCC1(CC)CC(CCN2CC3CN(c4cccc(OC)c4)CC3C2)OC1=O` (stereo not shown) [Entry 11] yielded an IC50 of 911 nM. Same read-out and setting: next, `CCC1(CC)CC(CCN2CC3CN(c4ccc(O)cc4)CC3C2)OC1=O` (stereo not shown) [Entry 15]: 130 nM; `CCC1(CC)CC(CCN2CC3CN(c4ccccc4OC)CC3C2)OC1=O` (stereo not shown) [Entry 10]: 151 nM; `CCC1(CC)CC(CCN2CC3CN(c4ccccc4O)CC3C2)OC1=O` (stereo not shown) [Entry 13]: 227 nM. `CCC1(CC)CC(CCN2CC3CN(c4ccccc4N4CCOCC4)CC3C2)OC1=O` (stereo not shown) [Entry 16] showed an IC50 of 160 nM.

In turn, `CCC1(CC)CC(CCN2CC3CN(c4ccccc4C(C)C)CC3C2)OC1=O` (stereo not shown) [Entry 2] displayed an IC50 of 277 nM.

In the case of `CCC1(CC)CC(CCN2CC3CN(c4ccccc4)CC3C2)OC1=O` (stereo not shown) [Entry 1], the IC50 stood at 64 nM.

As to `CCC1(CC)CC(CCN2CC3CN(c4ccccc4C)CC3C2)OC1=O` (stereo not shown) [Entry 4], the half-maximal inhibitory concentration (IC50) is 179 nM.

Compound `CCC1(CC)CC(CCN2CC3CN(c4cccc(C)c4)CC3C2)OC1=O` (stereo not shown) [Entry 5] had a concentration for half-maximal inhibition (IC50) of 104 nM.

As to `CC(C)c1ccccc1N1CC2CN(CCC3CC4(CCCCC4)C(=O)O3)CC2C1` (stereo not shown) [Entry 3], the IC50 was found to be 268 nM.

These data come from patent publication US11220505B2, “5-hydroxytryptamine receptor 7 modulators and their use as therapeutic agents” (Temple University-Of the Commonwealth System of Higher …, priority 2017, dated 2022).
